The source of these data is patent US12691102B2, “Composition for preventing or treating chronic kidney disease, comprising compound that induces expression of anti-aging gene klotho” (KLOTHO SCIENCES, priority 2021, dated 2026).

A value given as a limit tells only on which side of the number the result lay.

Data set [1] concerns promoter of the human klotho gene. The experiment in a line: Luciferase expression experiment, human klotho promoter reporter (1.7 kbp or 240 bp) in RPTEC cells. The data set is classed as cell-based. The following applies: 5 μM, 24 hours, promoter 1.7 kbp or 240 bp, among Comparative Examples 1 to 4, FIG. 1. As to the method: (§1) In order to evaluate whether the klotho gene was expressed by the evaluation of luciferase activity, human renal proximal tubule epithelial cells (RPTECs) (ATCC CRL-4031), which are epithelial cells of the proximal tubule of the human kidneys, were purchased from Lonza, USA and used.
(§2) For culturing, a Renal Epithelial Growth Medium (REGM™) Bullet kit, also manufactured by the same Lonza company, was used, and the cells were cultured under conditions of 37° C. and 5% CO2. As a plasmid for luciferase expression, a plasmid in which the promoter site of a human KL (klotho) gene was disposed to regulate the expression of a firefly luciferase gene was used.
The plasmid was incorporated into cells using an X-treme GENE transfection reagent from Roche. The activity of luciferase expressed in cells was measured using a Dual-Luciferase reporter assay system manufactured by Promega. After the cultured cells were treated with each compound at an indicated concentration for 24 hours, the activity of luciferase was measured. It is indirectly shown that the expression of the klotho gene may be increased when the activity of luciferase is high. […]

Data set [2] has the same test system. In words: Luciferase expression experiment, reporter gene pHKP-luc (promoter up to -2.1 kb upstream of human klotho gene) in RPTECs. The class given is cell-based. On the procedure:
as §1, §2
The plasmid was incorporated into cells using an X-treme GENE transfection reagent from Roche. The activity of luciferase expressed in cells was measured using a Dual-Luciferase reporter assay system manufactured by Promega. After the cultured cells were treated with each compound at an indicated concentration for 24 hours, the activity of luciferase was measured. It is indirectly shown that the expression of the klotho gene may be increased when the activity of luciferase is high.
The results of confirming the expression of a reporter gene by treating RPTECs, which are epithelial cells of the proximal tubule of the human kidneys, with Examples 1 to 6 at concentrations of 0.5, 1 and 5 μM and Comparative Example 1 at a concentration of 5 μM and using a reporter gene (pHKP-luc) including a promoter included up to −2.1 kb upstream of the human klotho gene are illustrated in FIGS. 2 and 3.

For data set [3], the system named is klotho (KL) gene. In words: Quantitative evaluation of klotho (KL) gene expression level using real-time PCR in RPTEC cells. The data set is classed as cell-based, human. To be noted: treated for 6 hours, FIG. 4. As to the method: For RNA extraction from RPTEC cells, which are epithelial cells of the proximal tubule of the human kidneys, treated with the compounds of Comparative Example 1 and Examples 1 and 2 for 6 hours, an RNeasy kit from Qiagen Inc. was used. The results of preparing cDNA from extracted RNA using a Superscript II kit from Thermo Fisher Scientific, Inc. and performing the quantitative evaluation using Taqman Gene Expression assays from Applied Biosystems as a klotho (KL) gene-specific kit are illustrated in FIG. 4.
On the technique in general: Quantitative PCR measures a nucleic acid by following its amplification.

Data set [4] deals with chronic kidney disease model. The experiment in a line: Chronic kidney disease model (db/db mice, high protein diet). The data set is classed as in vivo. To be noted: oral gavage daily 2, 10, 50 mg/kg. The text has this:
For the chronic kidney disease model, 20 db/m mice (10 5-week-old mice, 10 6-week-old mice) and 50 db/db mice (25 5-week-old mice and 25 6-week-old mice) were imported from Jackson Lab, USA, and after the adaptation period, the experiment was started (mouse model number JAX 000642-BKS.Cg-Dock7m+/+Leprdb/j5W/M Wildtype for Dock7m, BKS.Cg-Dock7m+/+Leprdb/j 5W/M Heterozygous for Dock7m). Each group was divided into set1 and set2 due to the large number of mice, with 5-week-old mice as set2, and the experiment was conducted one week later so that all mice were in the experiment from 6 weeks of age. After measuring the body weight, the mice were evenly distributed in each group and fed a normal diet (ND) and a high protein diet (HPD). After 3 weeks on the high protein diet, 2-hour urine samples were collected via a metabolic cage for analysis. […] After 12 weeks of drug administration, mice were sacrificed, and blood and organs were obtained for hematology and tissue analysis. Urine analysis was performed at SCL healthcare center, and blood analysis was performed using I-STAT cartridge (CHEM 8+).
The animals were anesthetized with anesthetic and perfusion-fixed with fixative (Periodate-Lysine-2% paraformaldehyde) through the heart for 8 minutes. Additional fixation was performed at 4° C. for 16 hours or more in the same fixative. After undergoing a dehydration process through an alcohol series, the tissue slides were prepared by embedding in wax and then cutting to 5 μm. After the tissue was hydrated again through the hydration process, it was immersed in a citric acid solution of pH 6 and heated to retrieve the aldehyde-fixed protein. Endogenous peroxidase was then blocked by treatment with 1.7% H2O2 in methanol for 30 minutes, followed by treatment with 0.5% triton X-100 in PBS for 15 minutes to increase the penetration of the antibody. […] Using more than 100 photographs for each group, the expressed areas were quantified using a color image analyzer (TDI Scope Eye version 3.6 for windows; Olympus, Japan) (FIG. 14). […]

Data set [5] relates to klotho (KL) gene. In words: Quantitative evaluation of klotho (KL) gene expression level using general PCR in RPTEC cells. The class given is cell-based, human. The following applies: 2.5 μM, 6 hours, FIG. 5. On the procedure: After RPTEC cells, which are epithelial cells of the proximal tubule of the human kidneys, were each treated with the compounds of Examples 7 to 10 at 2.5 μM for 6 hours, RNA was extracted from the cells, and cDNA was prepared from the extracted RNA using a Superscript II kit from Thermo Fisher Scientific, Inc., and then general PCR was performed.
Information on the primers used in the experiment is as follows. • KL-F […] (SEQ ID NO: 1) • KL-R […] (SEQ ID NO: 2) • GAPDH-F […] (SEQ ID NO: 3) • GAPDH-R […] (SEQ ID NO: 4)
The DNA amplified by PCR was confirmed by staining with ethidium bromide after electrophoresis on an agarose gel, and the amounts of DNA in the band were quantitatively compared using the SPEedyQuant program, and are illustrated in FIG. 5.

Data set [6] relates to klotho protein. The experiment in a line: Klotho protein expression level in cisplatin-treated HK-2 cells. The data set is classed as cell-based, human. The following applies: FIG. 7B. On the procedure:
As in the protocol in FIG. 7A, a disease model was made by treating HK-2 cells (human renal cells) with cisplatin (20 μM), and then treated with a KS1 compound (Example 10) (3 μM). After 24 hours, the expression degree of the klotho protein was confirmed by obtaining the cells.

Data set [7] has as its system human kidney-2 (HK2) cells. The experiment in a line: Toxicity test (EZ-Cytox) in HK2 cells. The class given is cell-based. To be noted: 12.5 μM or 25 μM, 24 hours, FIG. 6. As to the method:
Cultured human kidney-2 (HK2) cells were treated with Comparative Example 1, Example 2 and Examples 9 to 10 at a concentration of 25 μM or 12.5 μM, and after 24 hours, cytotoxicity was measured using an EZ-Cytox kit.

Data set [8] has as its system unilateral ureter obstruction model. In words: Unilateral ureter obstruction (UUO) model. The data set is classed as in vivo. To be noted: mice, 20 mg/kg/day into the abdominal cavity. As to the method: In a unilateral ureter obstruction model, 5-week-old male […] mice were used. After the right ureter was tied with a thread to create a unilateral ureter obstruction model, the KS1 compound (20 mg/kg/day) was injected into the abdominal cavity daily starting 24 hours later. After that, samples were collected by sacrificing the mice on days 7 and 14 and tested (FIG. 8A). H&E staining was performed to investigate changes in the nucleus and cytoplasm in the unilateral ureter obstruction model, and the results are illustrated in FIG. 9. […] In addition, Sirius Red staining was performed to investigate the change according to the progress of fibrosis in the unilateral ureter obstruction model. […] TUNEL staining was performed to investigate the degree of apoptosis in the unilateral ureter obstruction model.

Where [9] appears, read: RPTECs, Examples at 0.5, 1 and 5 μM, Comparative Example 1 at 5 μM, FIG. 2.

As for `O=C(Nc1ccccc1Cl)c1c[nH]c2ccccc12` [Comparative Example 1, N-(2-chlorophenyl)-1H-indole-3-carboxamide], in data set [1], the “luciferase activity (klotho promoter reporter)” value is on record as “the highest”.
Consider `O=C(Nc1nc2ccccc2o1)c1ccc([N+](=O)[O-])cc1Cl` [Example 1, N-(benzo[d]oxazol-2-yl)-2-chloro-4-nitrobenzamide], for which the “expression of the reporter gene (pHKP-luc)” value in data set [2] (setting [9]) is on record as “at a level similar to that of Comparative Example 1”.
As for `Cc1ccc2oc(Nc3ccc(Cl)c(Cl)c3)nc2c1` [Example 2], the “expression of the reporter gene (pHKP-luc)” value in data set [2] (RPTEC cells, 5 μM, FIG. 3) is “at a level similar to that of Comparative Example 1”; in data set [2] (setting [9]), “at a level similar to that of Comparative Example 1”. Further, the “klotho (KL) gene mRNA expression level (real-time PCR)” value in data set [3] is given as “at a level similar to that of Comparative Example 1”.
Regarding `Fc1ccc(Nc2nc3ccccc3o2)cc1F` [Example 10, N-(3,4-difluorophenyl)benzo[d]oxazol-2-amine], the “expression of klotho protein (immunohistochemistry, kidney)” value in data set [4] (12 weeks, FIG. 14, 15) is reported as “statistically significantly (p<0.05) increased”. Also, the “blood urea nitrogen (BUN)” value in data set [4] (12 weeks, FIG. 17) is recorded as “statistically significant (p<0.05) decrease”. Further, the “microalbumin level in urine (in proportion to creatinine)” value in data set [4] (FIG. 16) is listed as “statistically significant (p<0.05) decrease”. Also, the “expression level of the klotho (KL) gene, relative to the level of Comparative Example 1” value in data set [5] is “about 10 times”. Also, the “expression of the klotho protein” value in data set [6] (HK-2 cells, cisplatin (20 μM) disease model, then 3 μM compound, 24 hours) is on record as “increased”. For the same compound, in data set [7], the “improvement of toxicity compared to Comparative Example 1” value is listed as at least 20% and the “toxicity (cytotoxicity, EZ-Cytox)” value is reported as “the least toxicity”. Further, in data set [8] (FIG. 8B), the “renal hypertrophy (kidney size)” value is given as “no difference in size”. Besides, in data set [8] (one-week and two-week samples, FIG. 9), the “nuclear and cytoplasmic changes, tissue destruction (H&E staining)” value is “a large reduction in tissue destruction”. In addition, the klotho protein expression result in data set [8] (one-week sample, FIG. 12) is given as “increased”. Also, the “fibrosis (Sirius Red staining)” value in data set [8] (vs UUO model not treated, FIG. 10) is listed as “fibrosis occurred less”. Moreover, the “apoptosis (TUNEL staining)” value in data set [8] (vs UUO model not treated, FIG. 11) is reported as “remarkably reduced”. In addition, in data set [8] (week 1 and week 2, FIG. 13), the “MMP-9 protein expression level (inflammation marker)” value was “remarkably reduced”.
In the case of `N.N.[Cl][Pt][Cl]` [cisplatin, reference compound], the “expression of the klotho protein” value in data set [6] (HK-2 cells treated with cisplatin (20 μM) alone) is reported as “decreased”.
